Assay results as given in a compilation of properties of binary mixtures (doi:10.7498/aps.66.196101).

Experiment: xn = mol fraction of the nth substance listed
Details: 100 kPa

CCC[n+]1ccccc1.N#C[N-]C#N + O
Details | electrical conductivity, x1 = 0.9305 [S/m] | electrical conductivity, x1 = 0.9444 [S/m] | electrical conductivity, x1 = 0.9588 [S/m] | electrical conductivity, x1 = 0.9735 [S/m] | electrical conductivity, x2 = 0.0114 [S/m] | viscosity, x1 = 0.9277 [mPa·s] | viscosity, x1 = 0.9416 [mPa·s] | viscosity, x1 = 0.9559 [mPa·s] | viscosity, x1 = 0.9705 [mPa·s] | viscosity, x2 = 0.0144 [mPa·s]
298.15 K | – | 1.44 | 1.41 | 1.37 | 1.34 | 20.93 | 21.6 | – | – | 24.55
303.15 K | – | – | 1.61 | – | 1.53 | 17.56 | 18.05 | 18.78 | 19.65 | 20.53
308.15 K | 2.03 | 1.97 | 1.91 | 1.86 | 1.81 | 15.11 | 15.43 | 15.97 | 16.69 | 17.49
313.15 K | 2.35 | 2.3 | 2.23 | 2.17 | – | – | 13.31 | – | 14.28 | 14.87
318.15 K | 2.64 | – | 2.57 | 2.52 | 2.47 | 11.38 | 11.63 | 11.99 | – | 12.93
323.15 K | 2.98 | – | 2.92 | – | 2.84 | – | 9.95 | 10.29 | 10.68 | 11.07
328.15 K | 3.42 | 3.38 | 3.33 | 3.29 | 3.25 | 8.53 | – | – | 9.21 | 9.66
333.15 K | 3.88 | – | 3.77 | – | 3.68 | 7.65 | 7.77 | 7.97 | 8.23 | 8.57
338.15 K | 4.31 | 4.27 | – | 4.17 | 4.11 | 6.91 | 7.01 | – | 7.41 | 7.68

CCCCC[n+]1ccccc1.N#C[N-]C#N + O
Details | electrical conductivity, x1 = 0.9199 [S/m] | electrical conductivity, x1 = 0.9356 [S/m] | electrical conductivity, x1 = 0.9518 [S/m] | electrical conductivity, x1 = 0.9685 [S/m] | electrical conductivity, x2 = 0.0142 [S/m] | viscosity, x1 = 0.9199 [mPa·s] | viscosity, x1 = 0.9345 [mPa·s] | viscosity, x1 = 0.9518 [mPa·s] | viscosity, x1 = 0.9674 [mPa·s] | viscosity, x2 = 0.0154 [mPa·s]
298.15 K | 0.687 | – | 0.648 | 0.63 | 0.611 | 41 | 42.1 | 43.4 | 44.7 | 45.9
303.15 K | 0.865 | – | 0.798 | 0.761 | 0.719 | 33.3 | 34.1 | 35.1 | 36 | 37
308.15 K | 1.08 | 1.03 | – | 0.926 | 0.873 | 27.4 | 28.1 | – | – | 30.4
313.15 K | – | 1.19 | 1.13 | 1.09 | 1.03 | – | 23.49 | 24.01 | 24.6 | 25.4
318.15 K | 1.42 | 1.39 | 1.33 | – | – | 19.45 | 19.85 | 20.32 | 20.87 | 21.39
323.15 K | – | 1.6 | 1.55 | – | 1.43 | – | – | 16.27 | – | –
328.15 K | 1.86 | – | 1.76 | 1.7 | – | 13.96 | – | 14.48 | 14.81 | –
333.15 K | 2.08 | 2.03 | 1.97 | 1.92 | 1.88 | 12.2 | 12.43 | 12.69 | 12.99 | 13.26
338.15 K | 2.34 | 2.29 | – | 2.17 | 2.12 | 10.78 | 10.9 | – | 11.32 | 11.64
